# Measurements: ChEMBL document CHEMBL1125506, “Fluoronaphthyridines as antibacterial agents. 6. Synthesis and structure-activity relationships of new chiral 7-(1-, 3-, 4-, and 6-methyl-2,5-diazabicyclo[2.2.1]heptan-2-yl)naphthyridine analogues of 7-[(1R,4R)-2,5- diazabicyclo[2.2.1]heptan-2-yl]-1-(1,1-dimethylethyl)-6-fluoro-1,4-dihy …” (J Med Chem, 1992)
# Assays:
# [1] = Solubility (water, 22C, pH 7.2); type: physicochemical; conditions: read-out: S
# [2] = system: Klebsiella pneumoniae; assay: In vitro antibacterial activity against Klebsiella pneumoniae A9664; type: functional
# [3] = system: Mus musculus; assay: In vivo efficacy on systemic infections caused by Pseudomonas aeruginosa A9843 in mice after intramuscular administration; type: functional; conditions: im, read-out: PD50
# [4] = system: Pseudomonas aeruginosa; assay: In vitro antibacterial activity against Pseudomonas aeruginosa A9843; type: functional
# [5] = system: Enterobacter cloacae; assay: In vitro antibacterial activity against Enterobacter cloacae A9656; type: functional
# [6] = Peak concentration in blood after peroral administration to mice; type: ADME, organism-based; set-up: route oral; conditions: mouse, po
# [7] = system: Escherichia coli; assay: In vitro antibacterial activity against Escherichia coli A15119; type: functional
# [8] = system: Mus musculus; assay: In vivo efficacy on systemic infections caused by Pseudomonas aeruginosa A9843 in mice after peroral administration; type: functional; conditions: po, read-out: PD50
# [9] = Percent urinary recovery in 24 hr after peroral administration to mice; type: ADME, organism-based; conditions: mouse, urine, po; read-out: UR
# [10] = system: Mus musculus; assay: Area under curve measured as conc vs time after intravenous administration to mice.; type: ADME, organism-based; set-up: unit not given here; conditions: in vivo
# [11] = system: Morganella morganii; assay: In vitro antibacterial activity against Morganella morganii A15153; type: functional
# [12] = Acute toxicity after peroral administration to mice; type: organism-based; conditions: mouse, in vivo, po
# [13] = system: Staphylococcus aureus; assay: In vitro antibacterial activity against Staphylococcus aureus A9537; type: functional
# [14] = Plasma half-life after intravenous administration to mice; type: ADME, organism-based; conditions: mouse
# [15] = system: Mus musculus; assay: In vivo efficacy on systemic infections caused by Escherichia coli A15119 in mice after intramuscular administration; type: functional; conditions: im, read-out: PD50
# [16] = system: Serratia marcescens; assay: In vitro antibacterial activity against Serratia marcescens A20019; type: functional
# [17] = Plasma half-life after peroral administration to mice; type: ADME, organism-based; conditions: mouse, po
# [18] = Partition coefficient (logD); type: physicochemical; conditions: octanol/water
# [19] = Peak concentration in blood after intravenous administration to mice; type: ADME, organism-based; set-up: route intravenous; conditions: mouse
# [20] = (§1) percent urinary recovery in 24 hr after intravenous administration to mice; type: ADME, organism-based; conditions: mouse, urine, read-out: UR
# [21] = system: Mus musculus; assay: Area under curve measured as conc vs time after peroral administration to mice.; type: ADME, organism-based; set-up: unit not given here; conditions: in vivo, po
# [22] = system: Proteus mirabilis; assay: In vitro antibacterial activity against Proteus mirabilis A9900; type: functional
# [23] = Acute toxicity after intravenous administration to mice; type: organism-based; conditions: mouse, in vivo
# [24] = system: Mus musculus; assay: In vivo efficacy on systemic infections caused by Escherichia coli A15119 in mice after peroral administration; type: functional; conditions: po, read-out: PD50
# [25] = system: Mus musculus; assay: In vivo efficacy on systemic infections caused by Staphylococcus aureus A15090 in mice after intramuscular administration; type: functional; conditions: im, read-out: PD50
# [26] = system: Mus musculus; assay: In vivo efficacy on systemic infections caused by Streptococcus pneumoniae A9585 in mice after peroral administration; type: functional; conditions: po, read-out: PD50
# [27] = system: Mus musculus; assay: In vivo efficacy on systemic infections caused by Staphylococcus aureus A15090 in mice after peroral administration; type: functional; conditions: po, read-out: PD50
# [28] = system: Enterococcus faecalis; assay: In vitro antibacterial activity against Enterococcus faecalis A9809; type: functional
# [29] = system: Mus musculus; assay: In vivo efficacy on systemic infections caused by Pseudomonas aeruginosa A9843 after peroarl administration in mice; type: functional; conditions: read-out: PD50
# [30] = system: Streptococcus pneumoniae; assay: In vitro antibacterial activity against Streptococcus pneumoniae A9585.; type: functional
# [31] = system: Mus musculus; assay: In vivo efficacy on systemic infections caused by Streptococcus pneumoniae A9585 in mice after intramuscular administration; type: functional; conditions: im, read-out: PD50
# [32] = system: Bacteroides fragilis; assay: In vitro antibacterial activity against Bacteroides fragilis A-22,862; type: functional
# [33] = system: Mus musculus; assay: as §1; type: functional, Urine
Compound,solubility [1] [µg/mL],MIC [2] [µg/mL],ED50 [3] [mg/kg],MIC [4] [µg/mL],MIC [5] [µg/mL],Cmax [6] [ng/mL],MIC [7] [µg/mL],ED50 [8] [mg/kg],dose excreted at 24 h [9] [%],MIC [11] [µg/mL],MIC [13] [µg/mL],ED50 [15] [mg/kg],MIC [16] [µg/mL],logD [18],Cmax [19] [ng/mL],MIC [22] [µg/mL],ED50 [25] [mg/kg],ED50 [27] [mg/kg],MIC [28] [µg/mL],MIC [30] [µg/mL],also measured
CN1C[C@H]2C[C@@H]1CN2c1nc2c(cc1F)c(=O)c(C(=O)O)cn2C(C)(C)C,310,0.13,4.7,2,0.13,13000,0.25,10.2,3,0.5,0.13,1,0.25,0.21,14000,1,,,,,AUC [10]: 14; LD50 [12]: 1000 mg/kg; half-life [14]: 96 min; half-life [17]: 80 min; dose excreted at 24 h [20]: 15%; AUC [21]: 18; LD50 [23]: 188 mg/kg; ED50 [24]: 2.4 mg/kg
C[C@@H]1N[C@@H]2C[C@H]1N(c1nc3c(cc1F)c(=O)c(C(=O)O)cn3-c1ccc(F)cc1F)C2.Cl,15,0.13,2.4,1,0.13,,0.03,,,0.5,0.06,,0.25,-0.14,,0.5,1,1.4,1,1,ED50 [26]: > 50 mg/kg; ED50 [29]: 3.1 mg/kg; ED50 [31]: > 50 mg/kg; MIC [32]: 4 µg/mL
O=C(O)c1cn(C2CC2)c2cc(N3CCNCC3)c(F)cc2c1=O [CIPROFLOXACIN],,0.06,1.3,,,6000,,2.6,30,0.008,0.06,0.05,0.03,,22000,0.008,3.9,12.5,0.5,0.25,UR [33]: 25%; ED50 [26]: > 50 mg/kg; ED50 [24]: 1.4 mg/kg; ED50 [31]: 28.7 mg/kg; MIC [32]: 1 µg/mL
CC(C)(C)n1cc(C(=O)O)c(=O)c2cc(F)c(N3C[C@H]4C[C@@H]3CN4)nc21,80,0.016,1.4,0.25,0.016,10000,0.008,4.7,34,0.03,0.03,0.5,0.06,-0.41,20000,0.06,0.9,1.6,0.13,0.13,ED50 [26]: 28 mg/kg; LD50 [12]: 5000 mg/kg; half-life [14]: 73 min; half-life [17]: 96 min; dose excreted at 24 h [20]: 30%; LD50 [23]: 303 mg/kg; ED50 [31]: 18.9 mg/kg; MIC [32]: 0.5 µg/mL
Cc1c(F)c(N2C[C@H]3C[C@@H]2CN3)nc2c1c(=O)c(C(=O)O)cn2C1CC1,20,0.008,,0.006,0.002,9000,0.02,2.7,34,0.03,0.016,0.2,0.006,0.48,19000,0.03,2.4,5.4,0.06,0.06,ED50 [26]: 43.5 mg/kg; AUC [10]: 40; LD50 [12]: 1750 mg/kg; half-life [14]: 90 min; half-life [17]: 77 min; dose excreted at 24 h [20]: 41%; AUC [21]: 26; LD50 [23]: 125 mg/kg; ED50 [24]: 0.9 mg/kg; ED50 [31]: > 25 mg/kg; MIC [32]: 1 µg/mL
C[C@@H]1[C@H]2C[C@H](CN2)N1c1nc2c(cc1F)c(=O)c(C(=O)O)cn2C(C)(C)C.Cl,11800,0.25,12.5,1,0.06,5000,0.016,22,1,0.5,0.03,2.4,0.25,0.17,13000,0.5,7.5,13.1,0.5,0.13,AUC [10]: 10; half-life [14]: 44 min; half-life [17]: 48 min; dose excreted at 24 h [20]: 2%; AUC [21]: 5; ED50 [24]: 12.5 mg/kg; MIC [32]: 1 µg/mL
